The subject of assay [1] is SW48 human colorectal cancer cells (MSI-H cancer cells). The assay is described as follows: SW48 cell viability, CellTiter-Glo, 120 hours (Example B). The settings on record: Homo sapiens, SW48, 120 h, read-out: SW48 pCC50, SW48 cell viability, 120 hours incubation (converted); Table 2. For orientation: In ATP-based viability assays light output follows the ATP content of the culture.

The target of assay [2] is T1, recombinant full-length WRN protein (1-1432) (Homo sapiens, UniProt Q14191).
T1 construct: recombinant full-length WRN protein (1-1432)
Briefly: WRN unwinding activity, fluorogenic 384-well assay (Example A). It counts as biochemical. As to conditions: WRN unwinding activity, 4 hr; Table 2; read-out: 4 hr UNW pIC50 (converted). The procedure, abridged:
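200 pM enzyme (2× stock) preincubated with compound 4 h at ambient temperature, then 200 μM ATP and 12 nM quenched TAMRA-labelled dsDNA (2× stocks) added for 60 min; EDTA-quenched. Buffer 25 mM Tris pH 8.0, 5 mM NaCl, 2 mM MgCl2. Fluorescence at 525/598 nm; pIC50 from four-parameter fit.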

Structures can show the parent of a compound that is named as a salt.

T1 sequence (Q14191 whole entry): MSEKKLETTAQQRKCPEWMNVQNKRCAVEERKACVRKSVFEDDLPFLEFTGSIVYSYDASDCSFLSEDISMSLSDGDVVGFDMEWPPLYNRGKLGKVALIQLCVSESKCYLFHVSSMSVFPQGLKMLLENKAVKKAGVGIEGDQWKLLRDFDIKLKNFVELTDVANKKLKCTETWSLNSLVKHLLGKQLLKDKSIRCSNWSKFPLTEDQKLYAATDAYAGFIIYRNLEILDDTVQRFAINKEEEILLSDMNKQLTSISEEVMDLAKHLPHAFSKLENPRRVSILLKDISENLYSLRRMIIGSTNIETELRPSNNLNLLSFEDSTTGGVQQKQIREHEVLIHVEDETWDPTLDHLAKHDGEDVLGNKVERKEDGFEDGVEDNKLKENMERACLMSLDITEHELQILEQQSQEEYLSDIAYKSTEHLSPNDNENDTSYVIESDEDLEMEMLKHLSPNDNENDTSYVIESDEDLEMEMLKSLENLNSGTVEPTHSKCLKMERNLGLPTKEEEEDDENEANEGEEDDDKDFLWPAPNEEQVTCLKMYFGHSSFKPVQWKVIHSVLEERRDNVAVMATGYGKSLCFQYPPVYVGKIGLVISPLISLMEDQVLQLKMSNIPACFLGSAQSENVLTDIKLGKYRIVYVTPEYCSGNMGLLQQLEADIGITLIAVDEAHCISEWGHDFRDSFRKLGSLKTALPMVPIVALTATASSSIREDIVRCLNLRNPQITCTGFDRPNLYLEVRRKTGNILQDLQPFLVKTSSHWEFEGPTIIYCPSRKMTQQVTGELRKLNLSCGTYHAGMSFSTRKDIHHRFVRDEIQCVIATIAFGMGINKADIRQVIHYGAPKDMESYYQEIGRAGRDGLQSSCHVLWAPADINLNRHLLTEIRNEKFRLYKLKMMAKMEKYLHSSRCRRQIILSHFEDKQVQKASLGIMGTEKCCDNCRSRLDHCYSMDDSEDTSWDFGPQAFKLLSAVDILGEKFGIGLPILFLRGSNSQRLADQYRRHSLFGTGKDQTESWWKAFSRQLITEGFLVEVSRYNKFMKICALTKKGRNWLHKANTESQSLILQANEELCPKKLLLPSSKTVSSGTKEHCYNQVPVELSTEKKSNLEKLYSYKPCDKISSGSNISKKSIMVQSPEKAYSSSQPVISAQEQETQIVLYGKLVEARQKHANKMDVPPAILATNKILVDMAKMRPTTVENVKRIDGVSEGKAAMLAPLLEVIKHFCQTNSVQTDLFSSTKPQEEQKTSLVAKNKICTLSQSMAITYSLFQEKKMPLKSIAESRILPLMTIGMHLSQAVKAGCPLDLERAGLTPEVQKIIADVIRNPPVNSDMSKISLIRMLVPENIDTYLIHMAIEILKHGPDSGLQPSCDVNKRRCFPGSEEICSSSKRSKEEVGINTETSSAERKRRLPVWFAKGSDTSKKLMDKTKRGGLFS

Consider `Cc1nc2ccc(S(=O)(=O)N(C)c3ccc([C@H]4CCC[C@@H](C(=O)Nc5ccc(C(F)(F)F)cc5F)[C@@H]4C(=O)O)cc3)cc2n1C` [Example 131, (1R,2R,6S)-2-((2-fluoro-4-(trifluoromethyl)phenyl)carbamoyl)-6-(4-((N,1,2-trimethyl-1H-benzo[d]imidazole)-6-sulfonamido)phenyl)cyclohexane-1-carboxylic acid], for which, in assay [1], the CC50 is 3980 nM. Also, in assay [2], the IC50 was 6.31 nM.
The corresponding values for `CN(c1ccc([C@H]2CCC[C@@H](C(=O)Nc3ccc(C(F)(F)F)cc3F)[C@@H]2C(=O)O)cc1)S(=O)(=O)c1ccc(S(N)(=O)=O)cc1` [Example 133, (1R,2R,6S)-2-((2-fluoro-4-(trifluoromethyl)phenyl)carbamoyl)-6-(4-((N-methyl-4-sulfamoylphenyl)sulfonamido)phenyl)cyclohexane-1-carboxylic acid] are 12600 nM and 3.98 nM.
On the same counts, the results for `CN(c1ccc([C@H]2CCC[C@@H](C(=O)Nc3ccc(C(F)(F)F)cc3F)[C@@H]2C(=O)O)cc1)S(=O)(=O)c1cccc(S(N)(=O)=O)c1` [Example 134, (1R,2R,6S)-2-((2-fluoro-4-(trifluoromethyl)phenyl)carbamoyl)-6-(4-((N-methyl-3-sulfamoylphenyl)sulfonamido)phenyl)cyclohexane-1-carboxylic acid] are 12600 nM and 7.94 nM.
In the case of `C=CS(=O)(=O)N(C)c1ccc([C@H]2CCC[C@@H](C(=O)Nc3ccc(C(F)(F)F)cc3F)[C@@H]2C(=O)O)cc1` [Example 135, (1R,2R,6S)-2-((2-fluoro-4-(trifluoromethyl)phenyl)carbamoyl)-6-(4-(N-methylvinylsulfonamido)phenyl)cyclohexane-1-carboxylic acid], the CC50 in assay [1] was 2510 nM. Moreover, in assay [2], the IC50 is 2.51 nM.
On the same counts, the results for `COc1cc(S(=O)(=O)N(C)c2ccc([C@H]3CCC[C@@H](C(=O)Nc4ccc(C(F)(F)F)cc4F)[C@@H]3C(=O)O)cc2)ccc1Br` [Example 136, (1R,2S,6R)-2-(4-((4-bromo-3-methoxy-N-methylphenyl)sulfonamido)phenyl)-6-((2-fluoro-4-(trifluoromethyl)phenyl)carbamoyl)cyclohexane-1-carboxylic acid] are 3160 nM and 39.8 nM.
The corresponding values for `Cc1nc2cc(S(=O)(=O)N(C)c3ccc([C@H]4CCC[C@@H](C(=O)Nc5ccc(C(F)(F)F)cc5F)[C@@H]4C(=O)O)cc3Br)ccc2n1C` [Example 166, (1R,2S,6R)-2-(3-bromo-4-((N,1,2-trimethyl-1H-benzo[d]imidazole)-5-sulfonamido)phenyl)-6-((2-fluoro-4-(trifluoromethyl)phenyl)carbamoyl)cyclohexane-1-carboxylic acid] are 2510 nM and 7.94 nM.
Turning to `Cc1nc2cc(S(=O)(=O)N(C)c3ccc([C@H]4CCC[C@@H](C(=O)Nc5ccc(C(F)(F)F)cc5F)[C@@H]4C(=O)O)cc3C#CC(C)(C)O)ccc2n1C` [Example 167, (1R,2R,6S)-2-((2-fluoro-4-(trifluoromethyl)phenyl)carbamoyl)-6-(3-(3-hydroxy-3-methylbut-1-yn-1-yl)-4-((N,1,2-trimethyl-1H-benzo[d]imidazole)-5-sulfonamido)phenyl)cyclohexane-1-carboxylic acid], the CC50 in assay [1] was 20000 nM. For the same compound, the IC50 in assay [2] is 5.01 nM.
As for `Cc1nc2cc(S(=O)(=O)N(C)c3ccc([C@H]4CCC[C@@H](C(=O)NC56CC(CC(F)(F)F)(C5)C6)[C@@H]4C(=O)O)cc3)ccc2n1C` [Example 174, (1R,2R,6S)-2-((3-(2,2,2-trifluoroethyl)bicyclo[1.1.1]pentan-1-yl)carbamoyl)-6-(4-((N,1,2-trimethyl-1H-benzo[d]imidazole)-5-sulfonamido)phenyl)cyclohexane-1-carboxylic acid], the CC50 in assay [1] is 10000 nM. The IC50 in assay [2] was 20 nM.
Regarding `Cc1nc2cc(S(=O)(=O)N(C)c3ccc([C@H]4CCC[C@@H](C(=O)Nc5ccc(C6CCC6)cc5F)[C@@H]4C(=O)O)cc3)ccc2n1C` [Example 175, (1R,2R,6S)-2-((4-cyclobutyl-2-fluorophenyl)carbamoyl)-6-(4-((N,1,2-trimethyl-1H-benzo[d]imidazole)-5-sulfonamido)phenyl) cyclohexane-1-carboxylic acid], in assay [1], the CC50 was 1580 nM. For the same compound, the IC50 in assay [2] was 3.16 nM.
On the same counts, the results for `CC[C@H]1CC[C@H](NC(=O)[C@@H]2CCC[C@H](c3ccc(N(C)S(=O)(=O)c4ccc5c(c4)nc(C)n5C)cc3)[C@H]2C(=O)O)CC1` [Example 176, (1R,2R,6S)-2-(((1r,4R)-4-ethylcyclohexyl)carbamoyl)-6-(4-((N, 1,2-trimethyl-1H-benzo[d]imidazole)-5-sulfonamido)phenyl)cyclohexane-1-carboxylic acid] are 1260 nM and 1.26 nM.
As for `Cc1nc2cc(S(=O)(=O)N(C)c3ccc([C@H]4CCC[C@@H](C(=O)N[C@H]5CC[C@H](C(C)(C)F)CC5)[C@@H]4C(=O)O)cc3)ccc2n1C` [Example 182, (1R,2R,6S)-2-(((1r,4R)-4-(2-fluoropropan-2-yl)cyclohexyl)carbamoyl)-6-(4-((N, 1,2-trimethyl-1H-benzo[d]imidazole)-5-sulfonamido)phenyl)cyclohexane-1-carboxylic acid], in assay [1], the CC50 is 1580 nM. In assay [2], the IC50 is 2.51 nM.
The corresponding values for `Cc1nc2cc(S(=O)(=O)N(C)c3ccc([C@H]4CCC[C@@H](C(=O)NC56CC(C7CCCC7)(C5)C6)[C@@H]4C(=O)O)cc3)ccc2n1C` [Example 187, (1R,2R,6S)-2-((3-cyclopentylbicyclo[1.1.1]pentan-1-yl)carbamoyl)-6-(4-((N,1,2-trimethyl-1H-benzo[d]imidazole)-5-sulfonamido)phenyl)cyclohexane-1-carboxylic acid, formic acid salt] are 3980 nM and 6.31 nM.
For the compound `Cc1nc2cc(S(=O)(=O)N(C)c3ccc([C@H]4CCC[C@@H](C(=O)N[C@H]5CC[C@H](C6CCC6)CC5)[C@@H]4C(=O)O)cc3)ccc2n1C` [Example 188, (1R,2R,6S)-2-(((1r,4R)-4-cyclobutylcyclohexyl)carbamoyl)-6-(4-((N,1,2-trimethyl-1H-benzo[d]imidazole)-5-sulfonamido)phenyl)cyclohexane-1-carboxylic acid], the CC50 in assay [1] was 2510 nM. The IC50 in assay [2] is 2.51 nM.
On the same counts, the results for `CCC[C@H]1CC[C@H](NC(=O)[C@@H]2CCC[C@H](c3ccc(N(C)S(=O)(=O)c4ccc5c(c4)nc(C)n5C)cc3)[C@H]2C(=O)O)CC1` [Example 190, (1R,2R,6S)-2-(((1s,4R)-4-propylcyclohexyl)carbamoyl)-6-(4-((N,1,2-trimethyl-1H-benzo[d]imidazole)-5-sulfonamido)phenyl)cyclohexane-1-carboxylic acid] are 3980 nM and 1.58 nM.
The corresponding values for `Cc1nc2cc(S(=O)(=O)N(C)c3ccc([C@H]4CCC[C@@H](CO[C@H]5CC[C@H](C(F)(F)F)CC5)[C@@H]4C(=O)O)cc3)ccc2n1C` [Example 215, (1R,2R,6S)-2-((((1r,4R)-4-(trifluoromethyl)cyclohexyl)oxy)methyl)-6-(4-((N,1,2-trimethyl-1H-benzo[d]imidazole)-5-sulfonamido)phenyl)cyclohexane-1-carboxylic acid] are 20000 nM and 79.4 nM.
On to `Cc1nc2cc(S(=O)(=O)N(C)c3ccc([C@H]4CCC[C@@H](COc5ccc(C(F)(F)F)cc5)[C@@H]4C(=O)O)cc3)ccc2n1CCN` [Example 216, (1R,2S,6R)-2-(4-((1-(2-aminoethyl)-N,2-dimethyl-1H-benzo[d]imidazole)-5-sulfonamido)phenyl)-6-((4-(trifluoromethyl)phenoxy)methyl)cyclohexane-1-carboxylic acid, 0.41 formic acid salt], for which the CC50 in assay [1] was 12600 nM. The IC50 in assay [2] was 5.01 nM.
The corresponding values for `CCN(c1ccc([C@H]2CCC[C@@H](C(=O)Nc3ccc(C(F)(F)F)cc3F)[C@@H]2C(=O)O)cc1)S(=O)(=O)c1ccc2c(c1)nc(C)n2C` [Example 233] are 5010 nM and 12.6 nM.
With `Cc1nc2cc(S(=O)(=O)N(c3ccc([C@H]4CCC[C@@H](C(=O)Nc5ccc(C(F)(F)F)cc5F)[C@@H]4C(=O)O)cc3)C3CC3)ccc2n1C` [Example 238, (1R,2S,6R)-2-(4-((N-cyclopropyl-1,2-dimethyl-1H-benzo[d]imidazole)-5-sulfonamido)phenyl)-6-((2-fluoro-4-(trifluoromethyl)phenyl)carbamoyl)cyclohexane-1-carboxylic acid], the CC50 in assay [1] was 2000 nM. The IC50 in assay [2] is 3.98 nM.
`CN(c1ccc([C@H]2CCC[C@@H](C(=O)Nc3ccc(C(F)(F)F)cc3F)[C@@H]2C(=O)O)cc1)S(=O)(=O)c1ccc(O)c(C=O)c1` [Example 248]: the CC50 in assay [1] was 3980 nM. In addition, in assay [2], the IC50 is 3.16 nM.
On the same counts, the results for `CN(c1ccc([C@H]2CCC[C@@H](C(=O)Nc3ccc(C(F)(F)F)cc3F)[C@@H]2C(=O)O)cc1)S(=O)(=O)c1ccc2c(c1)CNCC2` [Example 260, (1R,2R,6S)-2-((2-fluoro-4-(trifluoromethyl)phenyl)carbamoyl)-6-(4-((N-methyl-1,2,3,4-tetrahydroisoquinoline)-7-sulfonamido)phenyl)cyclohexane-1-carboxylic acid hydrochloride] are 1580 nM and 2 nM.
As to `CN(c1ccc([C@H]2CCC[C@@H](C(=O)Nc3ccc(C(F)(F)F)cc3F)[C@@H]2C(=O)O)cc1)S(=O)(=O)c1ccc(Br)c(O)c1` [Example 274, (1R,2S,6R)-2-(4-((4-bromo-3-hydroxy-N-methylphenyl)sulfonamido)phenyl)-6-((2-fluoro-4-(trifluoromethyl)phenyl)carbamoyl)cyclohexane-1-carboxylic acid], the CC50 in assay [1] is 15800 nM. In addition, the IC50 in assay [2] is 15.8 nM.

The values above are taken from US12662451B2, “Chemical compounds and uses thereof” (GLAXOSMITHKLINE INTELLECTUAL PROPERTY (NO.4) LIMITED, priority 2023, dated 2026).
